Laboratory results published in paper PMC7021728, “Structure of the agonist 12–HHT in its BLT2 receptor-bound state” (Scientific Reports, 2020).
Where a chain is given by its changes, count along the chain named. pEC50, pKd: −log10 of the molar value.

Columns and labels:
wild-type BLT2 receptor = biological target: T1, wild-type BLT2 receptor (Homo sapiens, UniProt Q9NPC1); assay: Gi protein activation catalyzed by purified BLT2 (rate of GTPγS binding, Gαi2 intrinsic fluorescence); format: biochemical
T1 construct: made in house
T1 sequence (Q9NPC1 1-358): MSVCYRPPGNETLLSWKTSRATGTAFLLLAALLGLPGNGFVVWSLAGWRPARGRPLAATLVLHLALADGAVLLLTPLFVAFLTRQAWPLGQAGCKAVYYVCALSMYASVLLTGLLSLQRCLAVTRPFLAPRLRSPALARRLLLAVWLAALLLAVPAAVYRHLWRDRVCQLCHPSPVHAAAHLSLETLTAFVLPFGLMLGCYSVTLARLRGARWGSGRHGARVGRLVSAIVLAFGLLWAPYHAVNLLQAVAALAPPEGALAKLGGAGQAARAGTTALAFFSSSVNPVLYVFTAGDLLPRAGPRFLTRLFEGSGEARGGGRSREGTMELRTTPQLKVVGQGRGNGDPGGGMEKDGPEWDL
Description: Gαi2 and Gβ1γ2 were prepared as previously described. Briefly, agonist-dependent functional coupling of the purified receptor to Gαi2β1γ2 was assessed through the rate of GTPγS binding at increasing agonist concentrations determined by monitoring the relative increase in the intrinsic fluorescence ( λexcitation=300nm , λemission=345nm ) of Gαi2 (200 nM of purified G protein) in the presence of BLT2 (20 nM) in buffer containing 10 mM MOPS, pH 7.2, 130 mM NaCl, and 2 mM MgCl2 at 15 °C after the addition of 10 μM GTPγS. The data were normalized to the fluorescence maximum obtained in the presence of saturating concentrations in 12–HHT (10 μM).

BLT2 E185^5.42A = biological target: T2, BLT2 E185^5.42A (Homo sapiens, UniProt Q9NPC1, E185A); assay: Gi protein activation catalyzed by BLT2 mutant; format: biochemical
T2 construct: made in house
T2 sequence (Q9NPC1 1-358 E185A): T1 sequence (Q9NPC1 1-358) with E185A
Description: (§1) All mutations were introduced in the wild-type BLT2 receptor by PCR-mediated mutagenesis using the QuickChange multisite-directed mutagenesis kit (Stratagene) and the wild-type BLT2 construct as a template. Mutations were confirmed by nucleotide sequencing. […] Gαi2 and Gβ1γ2 were prepared as previously described. […] The data were normalized to the fluorescence maximum obtained in the presence of saturating concentrations in 12–HHT (10 μM).

BLT2 H177^ECL2A = biological target: T3, BLT2 H177^ECL2A (Homo sapiens, UniProt Q9NPC1, H177A); assay: Gi protein activation catalyzed by BLT2 mutant; format: biochemical
T3 construct: made in house
T3 sequence (Q9NPC1 1-358 H177A): T1 sequence (Q9NPC1 1-358) with H177A
Description: as §1

BLT2 R166^ECL2A = biological target: T4, BLT2 R166^ECL2A (Homo sapiens, UniProt Q9NPC1, R166A); assay: Gi protein activation catalyzed by BLT2 mutant; format: biochemical
T4 construct: made in house
T4 sequence (Q9NPC1 1-358 R166A): T1 sequence (Q9NPC1 1-358) with R166A
Description: as §1

BLT2 T274^7.39A = biological target: T5, BLT2 T274^7.39A (Homo sapiens, UniProt Q9NPC1, T274A); assay: Gi protein activation catalyzed by BLT2 mutant; format: biochemical
T5 construct: made in house
T5 sequence (Q9NPC1 1-358 T274A): T1 sequence (Q9NPC1 1-358) with T274A
Description: as §1

BLT1 = tested on: BLT1; set-up: method as in PMID 18378794; conditions: in words; cited from earlier work
purified BLT2 receptor = biological target: purified BLT2 receptor; set-up: method as in PMID 21688157; conditions: cited from earlier work

pEC50 (wild-type BLT2 receptor; construct wt, Gi protein activation): 7.68
pEC50 (wild-type BLT2 receptor; wild-type): 7.68
effect of the mutation on ligand binding (BLT2 E185^5.42A; E185A compared to wild-type, in words): did not significantly affect
pEC50 (BLT2 E185^5.42A; construct E185^5.42A): 7.15
pEC50 (BLT2 H177^ECL2A; construct H177^ECL2A): 7.61
effect of the mutation on ligand binding (BLT2 R166^ECL2A; R166^ECL2 mutation compared to wild-type, in words): do not impact receptor ligand properties
pEC50 (BLT2 R166^ECL2A; construct R166^ECL2A): 7.68
effect of the mutation on ligand binding (BLT2 T274^7.39A; T274^7.39A compared to wild-type, in words): do not impact receptor ligand properties
pEC50 (BLT2 T274^7.39A; construct T274^7.39A): 7.56
SMILES: CCCCC[C@H](O)/C=C/C=C/C/C=C\CCCC(=O)O [12–HHT, 12S–hydroxyheptadeca-5Z,8E,10E-trienoic acid]
effect of the mutation on ligand binding (BLT2 H177^ECL2A; H177^ECL2 to alanine compared to wild-type, in words): do not display a significant impact on ligand binding
binding to BLT1 (BLT1): does not bind
pKd (purified BLT2 receptor; purified BLT2 associated with amphipols in solution, in vitro): ~7.22
bound time compared with LTB4 (in vitro off-rate constant measurements) (purified BLT2 receptor; ratio 12–HHT / LTB4): 3.6 times
